Measurements published in the NIST ThermoML archive (doi:10.1016/j.jct.2009.06.003).
Numbers after ± are expanded uncertainties.

Experiments:
[1] = DTA
[2] = Molar enthalpy of transition or fusion; details: DSC

| Compound | Glass transition temperature [1] | Molar enthalpy of transition or fusion ([2]; Crystal) | Normal melting temperature ([1]; Crystal) | Molar enthalpy of transition or fusion ([2]; Crystal 1) | Molar enthalpy of transition or fusion ([2]; Crystal 2) | Normal melting temperature ([1]; Crystal 1) | Triple point temperature ([1]; Crystal 2) |
| --- | --- | --- | --- | --- | --- | --- | --- |
| CCn1cc[n+](C)c1.N#C[S-] [1-ethyl-3-methylimidazolium thiocyanate] | -97.5 ± 2 °C | – | – | – | – | – | – |
| CCCC[n+]1cccc(C)c1.Cc1ccc(S(=O)(=O)[O-])cc1 [1-butyl-3-methylpyridinium 4-methylbenzenesulfonate] | -53.0 ± 2 °C | 0.366 ± 0.0406 kcal/mol | 50.6 ± 0.5 °C | – | – | – | – |
| CCCCCC[n+]1cccc(C)c1.Cc1ccc(S(=O)(=O)[O-])cc1 [1-hexyl-3-methylpyridinium 4-methylbenzenesulfonate] | -39 ± 2 °C | 2.41 ± 0.0884 kcal/mol | 56.2 ± 0.5 °C | – | – | – | – |
| CCCC[n+]1ccc(C)cc1.O=S(=O)([N-]S(=O)(=O)C(F)(F)F)C(F)(F)F | -77.2 ± 2 °C | 5.24 ± 0.158 kcal/mol | 18.2 ± 0.5 °C | – | – | – | – |
| Cc1cc(C)[nH+]c(C)c1.Cc1ccc(S(=O)(=O)[O-])cc1 [2,4,6-trimethylpyridinium 4-methylbenzenesulfonate] | -7.8 ± 2 °C | 5.47 ± 0.163 kcal/mol | 130.6 ± 0.5 °C | – | – | – | – |
| Cc1cc[n+](C)cc1.Cc1ccc(S(=O)(=O)[O-])cc1 [1,4-dimethylpyridinium 4-methylbenzenesulfonate] | – | 7.38 ± 0.21 kcal/mol | 151.7 ± 0.5 °C | – | – | – | – |
| CC[S+](CC)CC.O=S(=O)([N-]S(=O)(=O)C(F)(F)F)C(F)(F)F [triethylsulfonium bis((trifluoromethyl)sulfonyl)imide] | -73.8 ± 2 °C | – | – | 1.67 ± 0.0669 kcal/mol | 2.25 ± 0.0813 kcal/mol | -10.3 ± 0.5 °C | 241.1 ± 2 K |
| CCCCCCn1cc[n+](C)c1.N#C[S-] [1-hexyl-3-methylimidazolium thiocyanate] | -83.2 ± 2 °C | – | – | – | – | – | – |
